# Assay results: paper PMC10212513, “Site IQ in mitochondrial complex I generates S1QEL-sensitive superoxide/hydrogen peroxide in both the reverse and forward reactions” (Biochemical Journal, 2023)
# Read-outs that look alike come from different tables or passages of the source.
# Assays:
# [1] = system: rat skeletal muscle mitochondria; experiment: Respiration of isolated mitochondria on glycerol 3-phosphate (Seahorse extracellular flux analyzer); format: biochemical; settings: 1–10 µM; in the presence of ADP; n = 2–3
# Protocol: Mitochondrial respiration was assayed at 37°C using an Agilent Seahorse XFe-24 as described previously, using 12.5 mM G3P as substrate.
# [2] = system: isolated rat skeletal muscle mitochondria; format: biochemical
# Protocol: Mitochondria were immobilised in coverglass-bottomed 96-well microplates (Greiner Sensoplate) by centrifugation for 15 min at 1000 g in KHEB medium at 4°C. The microplate was warmed in the 37°C heated environment chamber of a Nikon Eclipse Ti-PFS fully motorised wide-field fluorescence microscope equipped with a Lambda 821 LED light source with Lambda 10-3 emission filter wheel and Andor iXon Life 888 EMCCD camera, controlled by NIS Elements 5.20. TMRM (100 nM) was added to the wells, and in successive additions substrates were added without changing the TMRM concentration. TMRM was imaged using a Super Fluor 40× NA1.3 oil lens, a 586/20 nm excitation filter on a 560 nm LED, a 593 nm dichroic mirror, and a 641/75 nm emission filter capturing the centre 512 × 512 pixels area of the camera with no binning and with 1.5× optical zoom (0.17 µm/pixel resolution). Multiple (typically 25) view fields were recorded in one to three wells for 3 time points per substrate condition. In some experiments, TMRM imaging was followed by recording frames of NAD(P)H autofluorescence in the same view fields using a 340 nm LED, 414 nm dichroic mirror and 460/80 nm emission filter. The first autofluorescence frame matched the substrate condition of the last TMRM frame and then the recording of three more frames followed the application of rotenone (4 µM) or FCCP (4 µM) by 1 min delay. Recordings were analysed in Image Analyst MKII 4.2.1 (Image Analyst Software, Novato, CA) by performing image registration, background subtraction and ROI-based intensity measurement. Background was subtracted first as a blank image and then frame-by-frame using the ‘Mean of pixels below percentile of max projection (dilated mask)' method. Single-mitochondria ROIs were generated by morphological segmentation using a modification of the ‘Mitochondria : cell volume fractionator (basic)' standard pipeline. ΔψM was calculated using the Nernst equation. Because fluorescence was small in the absence of substrates, polarisation by G + M was calculated from TMRM fluorescence intensities (FTMRM) by comparison to succinate as 61 mV × log(FTMRM_G + M/FTMRM_succinate), which expresses how much less polarisation was provided by G + M than succinate, in millivolts. Polarisation by G3P was calculated by comparison to G + M as 61 mV × log(FTMRM_G3P/FTMRM_G + M), which expresses the millivolts hyperpolarisation when G3P is added in the presence of G + M. Changes in NAD(P)H autofluorescence (ΔNADH) were expressed as the observed fluorescence intensity change normalised to the population mean fluorescence before rotenone (or FCCP) addition. […] This was then converted to log2-fold changes to provide symmetrical distributions. Scatter plots were generated and analysed in Mathematica 13 (Wolfram Research).
# [3] = system: site IQf in complex I; experiment: Amplex UltraRed assay of superoxide/hydrogen peroxide production during forward electron transport (glycerol 3-phosphate plus 50 µM glutamate plus malate); format: biochemical, rat
# Protocol: Cuvette- and plate-based assays of superoxide/hydrogen peroxide production during RET using 12.5 mM G3P (or during FET using 12.5 mM G3P, 50 µM glutamate plus 50 µM malate) as substrate were conducted at 37°C as described [45] using 0.2 mg of mitochondrial protein/ml in 3 ml (plastic cuvettes, Varian Cary Eclipse spectrofluorometer (Ex 560 nm/Em 590 nm)) or 0.2 mg mitochondrial protein/ml, 0.01 mg/well (Pherastar FS (BMG) fluorescence microplate reader, Ex 540 nm/Em 590 nm), in KHEB medium (120 mM KCl, 3 mM HEPES, 1 mM EGTA, 0.3% w/v bovine serum albumin, pH 7.4) containing 25 U/ml SOD1, 25 µM Amplex Ultrared, and 5 U/ml HRP, plus dimethyl sulfoxide (DMSO) or treatments as indicated.
# [4] = system: Fa2N-4 cells; experiment: Subcellular analysis of NAD(P)H autofluorescence (mitochondria within cells); format: cell-based; settings: rotenone challenge
# Protocol: The NAD(P)H autofluorescence multiphoton time courses described above were de-noised by Wiener filtering, cropped based on the Cellpose ROIs resulting in 256 × 256 pixels images of single cells, and surrounding structures were masked in Image Analyst MKII. Then, to compensate for the motility of mitochondria during the time courses, B-spline-based deformable image registration was performed in Elastix 5.0.1 [49]. Image registration was quality controlled subjectively plus by calculating Pearson’s cross-correlation coefficient between before- and after-rotenone frames, and cells with a value lower than 0.6 were discarded. The pixel-by-pixel ratio of after- over before-treatment frames was calculated, masked by mitochondrial profiles generated by Otsu’s threshold method (with a logical OR of before- and after-frames), and log2 of the ratios was taken for all pixels. Image histograms were saved to Excel and analysed in Mathematica using a maximum log-likelihood method for fitting the binned log2-fold intensity values with normal distribution(s). Mock treatments were fitted well with a single, symmetric distribution. We attribute this change of pixel intensities between the consecutive frames of the time course to motility artefacts and noise. The distribution of log2-fold pixel intensity changes for rotenone-treated cells was wider, and therefore we coarsely modelled it as sum of two normal distributions (rotenone-responsive and unresponsive mitochondria, with σ matching that of the mock-treatment modelling motility and noise effects). […] This analysis was repeated for individual single cells (total 185 in three experiments).
# [5] = system: Fa2N-4 cells; experiment: NAD(P)H autofluorescence two-photon imaging, single-cell analysis; format: cell-based
# Protocol: Subcellular resolution micrographs of NAD(P)H autofluorescence were recorded using an upright Zeiss LSM 7MP multiphoton microscope, equipped with a Chameleon Vision II mode-locked laser set to 710 nm (1–1.5% of the 745 mW output power was used) and W Plan-Apochromat 20×/1.0 DIC M27 75 mm dipping water immersion objective lens and detection of emission between 420 and 480 nm. 1024 × 1024 pixels images (0.2 µm/pixel) were recorded at maximal scan speed and 8× frame averaging. Time courses of two frames, one before and one after the addition of rotenone (2 µM), FCCP (4 µM) or vehicle (DMSO 1 : 2000) were recorded using the Zeiss Multi Time Series macro. The cell monolayer was auto-focused at one x,y-position, and four other positions were imaged for analysis in each dish. Recordings were analysed in Image Analyst by rigid image registration, background subtraction and ROI-based intensity measurement. Unbiased single-cell ROIs were generated in using Cellpose 2.0 [48] with the ‘cyto2' neural network. Histograms were generated in Mathematica.
# [6] = rotenone 4 µM challenge, 50 µM G + M plus 12.5 mM G3P
# [7] = plate-reader titrations, IQf versus IQr, 2 µM atpenin A5, 10 µM S3QEL3
compound,measurement,setting,value
COc1[nH]c(=O)c(C(=O)[C@@H](C)C[C@H](C)[C@@H](Cl)CCl)c(O)c1OC [atpenin A5],Effect on respiration on 12.5 mM G3P,[1],no significant effect
C=C(C)[C@H]1Cc2c(ccc3c2O[C@@H]2COc4cc(OC)c(OC)cc4[C@@H]2C3=O)O1 [rotenone],Mitochondria responding by significantly increasing the reduction of their NADH/NAD+ pool,[2]; [6],65%
same,Mitochondria that did not change NAD(P)H fluorescence significantly,[2]; [6],30 ± 9%
same,Mitochondria responding by significant oxidation of NADH to NAD+,"[2]; rotenone 4 µM challenge, 50 µM G + M plus 12.5 mM G3P, n = 4",4.2 ± 1.1%
same,Sensitivity of superoxide/hydrogen peroxide production from site IQf compared with site IQr,[3]; [7],equally sensitive
same,Cellular mitochondria oxidising on challenge (excess pixel count),[4]; n = 3,0.5 ± 0.1%
same,Mitochondria in cells estimated to respond poorly or not at all,"[4]; n = 3 experiments, 185 cells",26 ± 3%
same,Mitochondria in cells that responded with increased fluorescence,"[4]; n = 3 experiments, 185 cells",74 ± 3%
same,Mean increase in NAD(P)H fluorescence intensity of responding mitochondria,[4]; responder population,50 ± 10%
same,Cells responding with an increase in NAD(P)H autofluorescence,"[5]; rotenone challenge (4 µM in legend, 2 µM in methods), n = 4",97 ± 4%
C/C=C(\C)[C@H](O)[C@H](C)/C=C(C)/C=C/C/C(C)=C/Cc1nc(OC)c(OC)c(O)c1C [piericidin A],Superoxide/hydrogen peroxide production by site IQf at highest concentration,"[3]; 10 µM, plate-reader",IQf activity reappeared
same,Sensitivity of superoxide/hydrogen peroxide production from site IQf compared with site IQr,[3]; [7],equally sensitive
N#CC(C#N)=NNc1ccc(OC(F)(F)F)cc1 [FCCP],Mitochondria responding with significant oxidation of NADH,[2],85 ± 2%
same,Sensitivity of superoxide/hydrogen peroxide production from site IQf compared with site IQr,[3],equally sensitive
same,Cells responding with a decrease in NAD(P)H autofluorescence,[5]; FCCP 4 µM,All cells
CO[C@@H]1C[C@@H](C[C@H]2CC[C@H](C)[C@H]([C@@H](C)C(=O)O)O2)O[C@]2(O[C@](C)([C@H]3CC[C@@](C)([C@@H]4O[C@@H]([C@H]5O[C@@](O)(CO)[C@H](C)C[C@@H]5C)C[C@@H]4C)O3)C[C@H]2C)[C@@H]1C [nigericin],Sensitivity of superoxide/hydrogen peroxide production from site IQf compared with site IQr,[3]; [7],equally sensitive
